PubChem BioAssay AID687005 (Broad Institute, 2013)
Inconclusive results are not listed. Calls of active or inactive are those of the source.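 Rule for the calls: active = Compounds that reduce signal, with fitted half-maximal dose at or under twice the top valid tested dose; inconclusive = Poor fit, or flat curve losing 30 to 70% of signal; inactive = Potency past limit, flat within 30%, or opposite direction.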

Experiment: HEK293T cell cytotoxicity, dose response, cytotoxicity control, ATP luminescence, cherry-pick samples (AID 687005)
Conditions: HEK293T viability, ATP luminescence (CellTiter-Glo), 48 h; at 23.5 µM (top of the series)

| SMILES | activity change, negative = cytotoxicity |
| --- | --- |
| COc1ccccc1-c1ccc([C@H]2[C@@H](C#N)N(C(=O)C3CC3)[C@@H]2CO)cc1 | 27.7% (inactive) |
| C[C@@H]1CN([C@@H](C)CO)C(=O)c2cc(NC(=O)Nc3ccc4c(c3)OCO4)ccc2O[C@H]1CN(C)Cc1ccc(Oc2ccccc2)cc1 | -38.4% (inactive) |
| CO[C@@H]1CN(C)C(=O)c2ccc(NC(C)=O)cc2OC[C@@H](C)N(C(=O)Cc2cccnc2)C[C@H]1C | -26.2% (inactive) |
| C[C@H]1CN([C@@H](C)CO)C(=O)Cc2cc(NC(=O)C3CC3)ccc2O[C@H]1CN(C)Cc1ccc(-c2ccccc2)cc1 | -24.1% (inactive) |
| C/C=C/c1ccc([C@H]2[C@@H](C#N)N(S(=O)(=O)c3cccc(F)c3)[C@H]2CO)cc1 | 7.73% (inactive) |

Same assay, conditions: HEK293T viability, ATP luminescence (CellTiter-Glo), 48 h; at 26 µM (top of the series)

| SMILES | activity change, negative = cytotoxicity |
| --- | --- |
| C[C@@H]1CCCCO[C@H](CN(C)Cc2ccc3c(c2)OCO3)[C@H](C)CN([C@H](C)CO)C(=O)c2cc(NC(=O)Nc3cccc4ccccc34)ccc2O1 | 171% (inactive) |
| CCCN(C)C[C@H]1OCCCC[C@@H](C)Oc2ccc(NC(=O)NC(C)C)cc2C(=O)N([C@@H](C)CO)C[C@H]1C | -9.71% (inactive) |
| CCCNC(=O)N(C)C[C@H]1Oc2ncc(C#CC3CCCCC3)cc2C(=O)N([C@@H](C)CO)C[C@@H]1C | 9.03% (inactive) |
| CC(C)CC#Cc1cnc2c(c1)C(=O)N([C@H](C)CO)C[C@H](C)[C@H](CN(C)C(=O)c1cccnc1)O2 | -8.15% (inactive) |
| CCCNC(=O)C[C@H]1C[C@H]2c3cc(NC(=O)Nc4ccc(OC)cc4)ccc3O[C@H]2[C@@H](CO)O1 | -21% (inactive) |
| CCC(=O)N[C@H]1C=C[C@H](CC(=O)NCC2CCCCC2)O[C@@H]1CO | 35.4% (inactive) |
| C[C@@H]1CN([C@@H](C)CO)S(=O)(=O)c2ccc(C#Cc3ccc(F)cc3)cc2O[C@H]1CN(C)C(=O)NC1CCCC1 | 39.2% (inactive) |
| CC=Cc1ccc2n(c1=O)C[C@@H]1[C@@H](CO)[C@H](C(=O)NCc3ccc4c(c3)OCO4)[C@H]2N1C(=O)C1CC1 (mixture of isomers) | -8.54% (inactive) |
| Cc1cccc(C)c1NC(=O)C(C)N1CCCC1 (configuration not stated) | -44.2% (inactive) |
| CCC(=O)Nc1ccc2c(c1)OC[C@H](C)N(C(=O)c1ccc(F)cc1)C[C@@H](C)[C@@H](OC)CN(C)C2=O | 62.2% (inactive) |
| O=C(C[C@H]1C[C@@H]2c3cc(NC(=O)c4cccnc4)ccc3O[C@@H]2[C@@H](CO)O1)NCCc1ccccc1 | -44.8% (inactive) |
| COCC(=O)N(C)C[C@@H]1Oc2ncc(C#CCC3CCCC3)cc2C(=O)N([C@H](C)CO)C[C@H]1C | 57.2% (inactive) |
| CCC(=O)N1[C@H](CN(C)C(C)=O)[C@@H](c2ccc(C3=CCCCC3)cc2)[C@@H]1CO | -18.9% (inactive) |
| CC(C)NC(=O)Nc1ccc2c(c1)C(=O)N([C@@H](C)CO)C[C@H](C)[C@@H](CN(C)C(=O)CCC(F)(F)F)OCCCC[C@H](C)O2 | 42.8% (inactive) |
| C/C=C/c1ccc([C@@H]2[C@@H](CNC(=O)C3CC3)N(C(=O)CC)[C@H]2CO)cc1 | -5.25% (inactive) |
| CCCCNC(=S)N/N=C/c1ccc(C#N)cc1 | -29.9% (inactive) |
| CCCNC(=O)N1C[C@@H](O)COC[C@H]2O[C@H](CC(=O)N3CCN(C)CC3)CC[C@@H]21 | -7.83% (inactive) |
| CC(C)CC#Cc1cnc2c(c1)C(=O)N([C@H](C)CO)C[C@H](C)[C@@H](CN(C)Cc1cccc(F)c1)O2 | -9.35% (inactive) |
| O=C(c1ccco1)N1N=C(c2cccs2)CC1c1cc([N+](=O)[O-])ccc1O (configuration not stated) | 37.4% (inactive) |
| O=C(C[C@H]1CC[C@@H]2[C@H](COC[C@H](O)CN2CC2CCOCC2)O1)NCc1ccc(Cl)cc1 | 19% (inactive) |
| CNC(=O)CN(c1ccc(OC)cc1)S(=O)(=O)c1ccc(F)cc1 | 31.6% (inactive) |
| CCC(=O)N(C)C[C@H]1Oc2cc(C#CC(C)(C)O)ccc2S(=O)(=O)N([C@H](C)CO)C[C@@H]1C | 41.1% (inactive) |
| O=C(NC(=S)Nc1ccccc1N1CCOCC1)c1cccc([N+](=O)[O-])c1 | -5.81% (inactive) |
| C[C@@H]1CN([C@@H](C)CO)C(=O)CCCn2nncc2CO[C@@H]1CN(C)Cc1cccc(C(F)(F)F)c1 | -9.87% (inactive) |
| Cc1cc(C(=O)Nc2cccc3c2O[C@H](CN(C)S(=O)(=O)c2ccccc2)[C@H](C)CN([C@H](C)CO)C3=O)n(C)n1 | 16.8% (inactive) |
| CCNC(=O)C[C@H]1CC[C@H](NC(=O)NC2CCCCC2)[C@@H](CO)O1 | -1.55% (inactive) |
| C[C@@H]1CN([C@@H](C)CO)C(=O)c2cc(N(C)C)ccc2O[C@@H]1CN(C)C(=O)Nc1ccc(C(F)(F)F)cc1 | -29.4% (inactive) |
